pIC50: −log10 of the molar value.
Tested on: 885512-296-R-J2-PDC complex spheroid viability
Assay: Anticancer human tumor 885512-296-R-J2-PDC patient-derived breast carcinoma cell line growth inhibition [GQUAD]
Conditions: for pIC50: curve of first compound; for viability, T/C: stronger effect = lower value
Excerpt: DNA G-quadruplex Stabilizer Agents in Combinations in Complex Spheroids
A high-throughput screen of multi-cell type tumor spheroids was designed to identify active combinations of DNA G-quadruplex stabilizer agents and targeted small molecules. Complex spheroids include a stromal component modeled by human endothelial cells (HUVEC) and fibroblasts modeled by human mesenchymal stem cells (MSCs). The concentration ranges selected for each drug and investigational agent were based upon clinically achievable concentrations if the clinical Cmax of the agent was known.
Compounds. The drugs and investigational agents: pidnarulex (CX-5461; NSC782164), APTO-253 (NSC789042), BRACO-19 (NSC847499), peposertib (NSC802822), ceralasertib (NSC780249), elimusertib (NSC800525), camonsertib (NSC841442), AZD-1390 (NSC803789), olaparib (NSC753686), talazoparib (NSC767125), ART-558 (NSC835418), sotorasib (NSC818433), MRTX-1133 (NSC836407), SN-38 (NSC673596), topotecan (NSC609699), etoposide (NSC141540), doxorubicin (NSC123127), gemcitabine (NSC613327), 5-fluorouracil (NSC19893), paclitaxel (NSC125973), vemurafenib (NSC761431), panobinostat (NSC761190), R-306465 (JNJ-16241199; NSC773264), adavosertib (NSC754352), TP-3654 (NSC805149), carboplatin (NSC241240), KSQ-4279 (NSC840948), and staurosporine (NSC755774) were obtained from the National Cancer Institute (NCI) Developmental Therapeutics Program Chemical Repository (34). The FDA-approved anticancer drug set is available from the NCI Developmental Therapeutics Program. […] The stock solutions were prepared in dimethyl sulfoxide (DMSO, Sigma-Aldrich, St. Louis, MO, cat. D2650) at 800-fold the tested concentration and stored at -70 degrees C prior to their use. All drugs and investigational agents were tested over a range starting from a high concentration at or near the clinical Cmax and decreasing in half-log increments. If the clinical Cmax for an agent had not been determined, the highest concentration tested was 10 microM.
2.3 Cell Culture. All cells were maintained in an incubator at 37 degrees C and 5% CO2 with 95% humidity. The PDC lines were cultured according to standard operating procedures established by the NCI PDMR. All PDCs were thawed and cultured in Matrigel-coated flasks prepared with a working solution of 1X Ham's F-12 nutrient mix, without supplementation (Invitrogen, cat. 11765054), 100 U/mL penicillin-streptomycin (Invitrogen, cat. 15140122), and 2.5% Matrigel (Corning Inc., cat. 354248) for the first three passages. The 857933-349-R-J2-PDC line was cultured in 6C/Colon 1B media, which includes advanced DMEM/F-12 (Thermo Fisher Scientific, cat. 12634028), 10 mM HEPES (Thermo Fisher Scientific, cat. 15630080), 1X GlutaMAX supplement (Thermo Fisher Scientific, cat. 35050061), 0.1 mg/mL primocin (InvivoGen, cat. ant-pm-2), 10% defined fetal bovine serum, heat inactivated (HyClone Laboratories Inc., cat. SH30070.03HI), 50% L-WRN conditioned media (ATCC, cat. CRL-3276), 1.25 mM N-Acetyl-L-cysteine (Sigma-Aldrich, cat. A9165), 10 mM nicotinamide (Sigma-Aldrich, cat. N0636), 1X B-27 supplement (Thermo Fisher Scientific, cat. 17504044), 1X N-2 supplement (Thermo Fisher Scientific, cat. 17502048), 10 microM Y-27632 dihydrochloride (Tocris Bioscience, cat. 1254), and 50 ng/mL human EGF recombinant protein (Thermo Fisher Scientific, cat. PHG0311). The 485176-168-R4-J1-PDC line was cultured in Panc media, which includes all 6C/Colon 1B media components plus 100 ng/mL human FGF-10 (Thermo Fisher Scientific, cat. 100-26), 500 nM SB-431542 (Selleckchem, cat. S1067), and gastrin (Tocris, cat. 3006).
[…]
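Also: spheroids exposed to the compounds for one week.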
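For viability, T/C in this document: percent of tumor spheroid viability relative to DMSO vehicle control wells.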

CC[C@@]1(O)C(=O)OCc2c1cc1n(c2=O)Cc2cc3c(CN(C)C)c(O)ccc3nc2-1 + Cc1cnc(CNC(=O)c2c(=O)c3ccc(N4CCCN(C)CC4)nc3n3c2sc2ccccc23)cn1
pIC50 (second compound 0.0316 µM): 7.86 | pIC50 (second compound 0.1 µM): 8.41 | pIC50 (second compound 0.316 µM): > 9.00 | pIC50 (second compound 1 µM): > 9.00 | pIC50 (second compound 3.16 µM): > 9.00 | pIC50 (second compound 10 µM): > 9.00 | viability, T/C (second compound 0.0316 µM, first compound 0.000999 µM): 82.1% | viability, T/C (second compound 0.0316 µM, first compound 0.00316 µM): 77.9% | viability, T/C (second compound 0.0316 µM, first compound 0.00999 µM): 62.1% | viability, T/C (second compound 0.0316 µM, first compound 0.0316 µM): 20.5% | viability, T/C (second compound 0.0316 µM, first compound 0.0999 µM): 15.2% | viability, T/C (second compound 0.0316 µM, first compound 0.316 µM): 6.65% | viability, T/C (second compound 0.1 µM, first compound 0.000999 µM): 63.8% | viability, T/C (second compound 0.1 µM, first compound 0.00316 µM): 52.1% | viability, T/C (second compound 0.1 µM, first compound 0.00999 µM): 37.4% | viability, T/C (second compound 0.1 µM, first compound 0.0316 µM): 20.1% | viability, T/C (second compound 0.1 µM, first compound 0.0999 µM): 13.4% | viability, T/C (second compound 0.1 µM, first compound 0.316 µM): 9.1% | viability, T/C (second compound 0.316 µM, first compound 0.000999 µM): 30% | viability, T/C (second compound 0.316 µM, first compound 0.00316 µM): 19.1% | viability, T/C (second compound 0.316 µM, first compound 0.00999 µM): 21.3% | viability, T/C (second compound 0.316 µM, first compound 0.0316 µM): 16.1% | viability, T/C (second compound 0.316 µM, first compound 0.0999 µM): 16.9% | viability, T/C (second compound 0.316 µM, first compound 0.316 µM): 12% | viability, T/C (second compound 1 µM, first compound 0.000999 µM): 21.8% | viability, T/C (second compound 1 µM, first compound 0.00316 µM): 22.8% | viability, T/C (second compound 1 µM, first compound 0.00999 µM): 18.4% | viability, T/C (second compound 1 µM, first compound 0.0316 µM): 20.1% | viability, T/C (second compound 1 µM, first compound 0.0999 µM): 15.2% | viability, T/C (second compound 1 µM, first compound 0.316 µM): 12% | viability, T/C (second compound 3.16 µM, first compound 0.000999 µM): 29.7% | viability, T/C (second compound 3.16 µM, first compound 0.00316 µM): 24% | viability, T/C (second compound 3.16 µM, first compound 0.00999 µM): 24.8% | viability, T/C (second compound 3.16 µM, first compound 0.0316 µM): 20.2% | viability, T/C (second compound 3.16 µM, first compound 0.0999 µM): 12.8% | viability, T/C (second compound 3.16 µM, first compound 0.316 µM): 8.5% | viability, T/C (second compound 10 µM, first compound 0.000999 µM): 0.07% | viability, T/C (second compound 10 µM, first compound 0.00316 µM): 0.13% | viability, T/C (second compound 10 µM, first compound 0.00999 µM): 0.24% | viability, T/C (second compound 10 µM, first compound 0.0316 µM): 0.16% | viability, T/C (second compound 10 µM, first compound 0.0999 µM): 0.17% | viability, T/C (second compound 10 µM, first compound 0.316 µM): 0.14%

Reference: PubChem BioAssay AID2060490 (Molecular Pharmacology Branch, DTP, NCI, 2025)
